These results are taken from ChEMBL document CHEMBL5291721, “A preclinical secondary pharmacology resource illuminates target-adverse drug reaction associations of marketed drugs” (Nat Commun, 2023).

Assay [1] deals with Gamma-aminobutyric acid receptor subunit alpha-1/alpha-2/beta-2/gamma-2 (Homo sapiens, UniProt P14867+P18507+P47869+P47870). The format is protein-complex assay.
The target of assay [2] is T1, Alpha-1A adrenergic receptor (Homo sapiens, UniProt P35348).
T1 sequence (P35348 whole entry): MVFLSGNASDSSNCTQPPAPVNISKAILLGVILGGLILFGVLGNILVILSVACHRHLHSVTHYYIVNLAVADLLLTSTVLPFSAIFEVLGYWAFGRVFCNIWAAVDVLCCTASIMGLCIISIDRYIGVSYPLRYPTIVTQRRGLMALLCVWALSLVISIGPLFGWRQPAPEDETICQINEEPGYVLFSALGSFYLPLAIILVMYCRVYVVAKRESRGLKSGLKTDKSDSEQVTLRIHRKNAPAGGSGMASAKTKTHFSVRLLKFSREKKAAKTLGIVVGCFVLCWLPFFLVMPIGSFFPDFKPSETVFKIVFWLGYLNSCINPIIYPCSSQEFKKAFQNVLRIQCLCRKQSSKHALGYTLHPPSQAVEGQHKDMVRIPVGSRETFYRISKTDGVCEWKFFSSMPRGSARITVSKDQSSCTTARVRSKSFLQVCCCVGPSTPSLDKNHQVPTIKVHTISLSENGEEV
The format is functional, cell-based.

The target of assay [3] is 5-hydroxytryptamine receptor 2B (Homo sapiens, UniProt P41595). It counts as functional, cell-based.
Chain of 5-hydroxytryptamine receptor 2B (P41595 whole entry): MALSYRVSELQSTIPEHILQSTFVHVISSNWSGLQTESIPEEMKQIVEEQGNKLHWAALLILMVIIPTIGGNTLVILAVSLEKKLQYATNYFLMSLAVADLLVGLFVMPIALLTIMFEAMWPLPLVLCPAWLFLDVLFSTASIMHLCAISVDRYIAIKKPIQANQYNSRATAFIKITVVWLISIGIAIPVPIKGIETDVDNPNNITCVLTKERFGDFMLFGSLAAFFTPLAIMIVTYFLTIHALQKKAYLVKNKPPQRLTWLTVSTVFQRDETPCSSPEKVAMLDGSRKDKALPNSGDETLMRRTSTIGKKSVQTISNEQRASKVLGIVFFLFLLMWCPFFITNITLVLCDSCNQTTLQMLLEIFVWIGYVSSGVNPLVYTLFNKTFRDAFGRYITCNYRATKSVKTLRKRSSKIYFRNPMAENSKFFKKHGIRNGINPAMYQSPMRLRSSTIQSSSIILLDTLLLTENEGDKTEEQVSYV
The target of assay [4] is T2, 5-hydroxytryptamine receptor 1A (Homo sapiens, UniProt P08908).
T2 sequence (P08908 whole entry): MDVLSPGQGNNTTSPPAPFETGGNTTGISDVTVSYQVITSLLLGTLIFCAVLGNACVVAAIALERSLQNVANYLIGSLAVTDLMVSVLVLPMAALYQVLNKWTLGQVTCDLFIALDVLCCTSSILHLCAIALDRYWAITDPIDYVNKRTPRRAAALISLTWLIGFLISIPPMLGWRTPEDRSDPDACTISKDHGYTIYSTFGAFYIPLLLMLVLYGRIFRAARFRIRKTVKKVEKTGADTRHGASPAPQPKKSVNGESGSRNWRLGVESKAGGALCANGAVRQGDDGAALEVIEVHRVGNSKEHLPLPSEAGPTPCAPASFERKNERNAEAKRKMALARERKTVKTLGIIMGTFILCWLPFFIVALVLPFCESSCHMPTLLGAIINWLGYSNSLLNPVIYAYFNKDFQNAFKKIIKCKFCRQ
The format is functional, cell-based.

The target in a further assay is Cannabinoid receptor 1 (Homo sapiens, UniProt P21554). The format is functional, cell-based.
Chain of Cannabinoid receptor 1 (P21554 whole entry): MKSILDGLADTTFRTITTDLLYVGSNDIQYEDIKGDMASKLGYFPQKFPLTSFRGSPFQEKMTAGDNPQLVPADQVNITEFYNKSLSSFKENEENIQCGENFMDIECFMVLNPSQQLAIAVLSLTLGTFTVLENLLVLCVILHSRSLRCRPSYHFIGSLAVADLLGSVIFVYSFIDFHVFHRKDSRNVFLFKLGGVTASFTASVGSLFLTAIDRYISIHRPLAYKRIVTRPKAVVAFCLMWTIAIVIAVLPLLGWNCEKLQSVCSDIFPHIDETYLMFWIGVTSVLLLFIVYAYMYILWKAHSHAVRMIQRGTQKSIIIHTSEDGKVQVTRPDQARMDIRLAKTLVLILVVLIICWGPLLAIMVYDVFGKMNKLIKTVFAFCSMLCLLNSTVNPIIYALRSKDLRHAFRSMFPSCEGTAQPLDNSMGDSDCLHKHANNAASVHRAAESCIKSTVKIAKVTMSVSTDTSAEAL
For assay [5], the target named is Beta-1 adrenergic receptor (Homo sapiens, UniProt P08588). The format is functional.
Chain of Beta-1 adrenergic receptor (P08588 whole entry): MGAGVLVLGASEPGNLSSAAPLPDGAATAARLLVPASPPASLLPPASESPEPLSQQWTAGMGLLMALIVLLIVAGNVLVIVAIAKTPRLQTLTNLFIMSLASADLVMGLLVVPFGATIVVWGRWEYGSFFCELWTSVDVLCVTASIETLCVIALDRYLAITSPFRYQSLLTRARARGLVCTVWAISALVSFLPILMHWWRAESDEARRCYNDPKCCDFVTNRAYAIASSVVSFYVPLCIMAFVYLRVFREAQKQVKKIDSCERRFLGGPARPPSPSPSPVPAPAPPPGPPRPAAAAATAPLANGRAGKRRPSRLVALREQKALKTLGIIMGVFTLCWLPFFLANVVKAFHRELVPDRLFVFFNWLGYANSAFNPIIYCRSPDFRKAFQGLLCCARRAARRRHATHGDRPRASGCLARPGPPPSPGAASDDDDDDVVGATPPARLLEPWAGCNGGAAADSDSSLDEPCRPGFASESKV
In the next assay the target is T3, Adenosine receptor A1 (Homo sapiens, UniProt P30542).
T3 sequence (P30542 whole entry): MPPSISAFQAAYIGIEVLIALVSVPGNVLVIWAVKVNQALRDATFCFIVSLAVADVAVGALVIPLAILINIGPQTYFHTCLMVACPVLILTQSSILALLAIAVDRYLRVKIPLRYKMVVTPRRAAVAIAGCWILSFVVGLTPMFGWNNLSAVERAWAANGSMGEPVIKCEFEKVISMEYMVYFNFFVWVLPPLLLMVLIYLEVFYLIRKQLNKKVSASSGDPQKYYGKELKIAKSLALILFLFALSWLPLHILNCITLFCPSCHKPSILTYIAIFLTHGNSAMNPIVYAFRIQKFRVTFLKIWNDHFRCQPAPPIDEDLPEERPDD

In assay [6] the target is Delta-type opioid receptor (Homo sapiens, UniProt P41143).
Chain of Delta-type opioid receptor (P41143 whole entry): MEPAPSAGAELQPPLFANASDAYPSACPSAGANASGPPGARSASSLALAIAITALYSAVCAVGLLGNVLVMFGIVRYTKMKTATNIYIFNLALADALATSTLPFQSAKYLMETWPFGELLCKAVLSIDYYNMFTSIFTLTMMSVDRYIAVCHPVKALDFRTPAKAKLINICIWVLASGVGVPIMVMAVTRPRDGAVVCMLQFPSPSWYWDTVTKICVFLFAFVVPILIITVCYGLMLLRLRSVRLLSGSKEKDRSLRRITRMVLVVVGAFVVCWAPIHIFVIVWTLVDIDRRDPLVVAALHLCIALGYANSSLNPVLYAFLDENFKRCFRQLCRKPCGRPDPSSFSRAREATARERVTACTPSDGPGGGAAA
For assay [7], the target named is Gamma-aminobutyric acid receptor subunit alpha-1 (Rattus norvegicus, UniProt P62813).
Chain of Gamma-aminobutyric acid receptor subunit alpha-1 (P62813 whole entry): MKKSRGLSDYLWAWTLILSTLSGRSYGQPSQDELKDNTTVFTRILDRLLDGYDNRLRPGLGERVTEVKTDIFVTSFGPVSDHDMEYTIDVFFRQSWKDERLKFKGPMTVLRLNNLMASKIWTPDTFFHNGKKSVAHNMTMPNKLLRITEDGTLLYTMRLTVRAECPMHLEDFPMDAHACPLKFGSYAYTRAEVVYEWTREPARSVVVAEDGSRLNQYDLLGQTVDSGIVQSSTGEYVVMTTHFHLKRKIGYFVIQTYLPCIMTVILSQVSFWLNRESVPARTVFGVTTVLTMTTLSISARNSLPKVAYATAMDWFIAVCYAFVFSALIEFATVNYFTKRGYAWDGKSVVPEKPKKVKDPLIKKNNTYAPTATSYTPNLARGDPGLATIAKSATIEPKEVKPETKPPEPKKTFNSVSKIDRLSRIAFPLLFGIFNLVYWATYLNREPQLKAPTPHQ
Assay [8] deals with T4, Gastrin/cholecystokinin type B receptor (Homo sapiens, UniProt P32239).
T4 sequence (P32239 whole entry): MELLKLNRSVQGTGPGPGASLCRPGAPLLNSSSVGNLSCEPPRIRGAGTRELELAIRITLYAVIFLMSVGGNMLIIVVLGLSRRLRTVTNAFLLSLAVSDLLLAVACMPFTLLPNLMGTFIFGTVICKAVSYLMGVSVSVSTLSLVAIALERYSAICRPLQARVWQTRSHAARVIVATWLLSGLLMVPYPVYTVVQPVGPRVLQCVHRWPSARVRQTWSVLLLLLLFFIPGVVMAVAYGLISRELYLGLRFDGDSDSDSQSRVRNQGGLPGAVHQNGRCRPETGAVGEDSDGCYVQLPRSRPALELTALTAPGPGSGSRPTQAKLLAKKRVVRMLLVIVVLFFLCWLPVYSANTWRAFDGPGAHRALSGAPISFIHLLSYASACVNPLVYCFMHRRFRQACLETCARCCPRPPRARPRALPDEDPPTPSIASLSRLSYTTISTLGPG

Another assay has as its target T5, Glucocorticoid receptor (Homo sapiens, UniProt P04150).
T5 sequence (P04150 whole entry): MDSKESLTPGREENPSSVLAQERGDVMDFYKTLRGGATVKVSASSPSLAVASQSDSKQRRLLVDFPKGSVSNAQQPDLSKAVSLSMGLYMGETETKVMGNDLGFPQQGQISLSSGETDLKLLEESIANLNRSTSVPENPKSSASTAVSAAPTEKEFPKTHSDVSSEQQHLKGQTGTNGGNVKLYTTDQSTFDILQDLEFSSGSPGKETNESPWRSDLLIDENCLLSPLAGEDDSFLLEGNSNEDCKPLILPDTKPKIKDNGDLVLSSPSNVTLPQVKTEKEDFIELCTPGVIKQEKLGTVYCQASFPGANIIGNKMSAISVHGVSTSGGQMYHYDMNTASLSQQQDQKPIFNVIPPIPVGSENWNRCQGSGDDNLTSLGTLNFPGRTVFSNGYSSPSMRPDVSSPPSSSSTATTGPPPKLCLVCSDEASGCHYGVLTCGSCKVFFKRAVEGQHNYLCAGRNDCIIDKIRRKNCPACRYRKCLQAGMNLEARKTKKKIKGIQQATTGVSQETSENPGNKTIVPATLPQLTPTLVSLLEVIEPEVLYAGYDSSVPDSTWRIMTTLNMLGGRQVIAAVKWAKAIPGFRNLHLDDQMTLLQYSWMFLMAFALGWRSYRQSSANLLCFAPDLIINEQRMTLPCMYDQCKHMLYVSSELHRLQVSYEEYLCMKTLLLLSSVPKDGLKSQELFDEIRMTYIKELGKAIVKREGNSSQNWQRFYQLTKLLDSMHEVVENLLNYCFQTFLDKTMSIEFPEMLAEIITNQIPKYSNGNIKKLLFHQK
Note: assay procedure not described here.

Chain of Gamma-aminobutyric acid receptor subunit alpha-1/alpha-2/beta-2/gamma-2 (P14867 whole entry): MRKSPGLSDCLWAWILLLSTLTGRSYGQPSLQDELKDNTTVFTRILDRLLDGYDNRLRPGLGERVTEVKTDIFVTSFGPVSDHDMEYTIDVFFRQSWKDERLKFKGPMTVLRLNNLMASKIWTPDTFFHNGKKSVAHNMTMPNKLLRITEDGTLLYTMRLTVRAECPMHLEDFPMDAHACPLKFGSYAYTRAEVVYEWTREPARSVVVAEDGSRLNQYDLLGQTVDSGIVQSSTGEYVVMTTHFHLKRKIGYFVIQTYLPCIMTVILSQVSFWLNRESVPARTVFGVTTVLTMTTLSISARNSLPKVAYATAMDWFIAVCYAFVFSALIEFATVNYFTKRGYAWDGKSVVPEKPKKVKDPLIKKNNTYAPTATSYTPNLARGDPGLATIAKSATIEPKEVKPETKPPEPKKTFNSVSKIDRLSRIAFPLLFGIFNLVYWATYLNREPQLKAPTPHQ
Chain of Gamma-aminobutyric acid receptor subunit alpha-1/alpha-2/beta-2/gamma-2 (P47870 whole entry): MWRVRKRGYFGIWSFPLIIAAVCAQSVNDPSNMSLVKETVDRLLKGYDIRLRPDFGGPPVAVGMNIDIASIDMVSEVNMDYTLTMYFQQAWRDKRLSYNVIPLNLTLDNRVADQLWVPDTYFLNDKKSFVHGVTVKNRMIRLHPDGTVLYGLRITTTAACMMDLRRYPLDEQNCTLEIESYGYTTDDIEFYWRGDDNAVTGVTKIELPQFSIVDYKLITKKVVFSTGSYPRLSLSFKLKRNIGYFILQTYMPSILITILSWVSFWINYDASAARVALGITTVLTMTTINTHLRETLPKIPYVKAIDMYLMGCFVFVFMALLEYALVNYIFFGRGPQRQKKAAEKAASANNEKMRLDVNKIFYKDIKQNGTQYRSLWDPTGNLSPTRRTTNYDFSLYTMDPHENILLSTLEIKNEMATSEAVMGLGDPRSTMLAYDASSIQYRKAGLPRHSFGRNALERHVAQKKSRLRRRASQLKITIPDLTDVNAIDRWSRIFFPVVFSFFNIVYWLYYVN
Chain of Gamma-aminobutyric acid receptor subunit alpha-1/alpha-2/beta-2/gamma-2 (P18507 whole entry): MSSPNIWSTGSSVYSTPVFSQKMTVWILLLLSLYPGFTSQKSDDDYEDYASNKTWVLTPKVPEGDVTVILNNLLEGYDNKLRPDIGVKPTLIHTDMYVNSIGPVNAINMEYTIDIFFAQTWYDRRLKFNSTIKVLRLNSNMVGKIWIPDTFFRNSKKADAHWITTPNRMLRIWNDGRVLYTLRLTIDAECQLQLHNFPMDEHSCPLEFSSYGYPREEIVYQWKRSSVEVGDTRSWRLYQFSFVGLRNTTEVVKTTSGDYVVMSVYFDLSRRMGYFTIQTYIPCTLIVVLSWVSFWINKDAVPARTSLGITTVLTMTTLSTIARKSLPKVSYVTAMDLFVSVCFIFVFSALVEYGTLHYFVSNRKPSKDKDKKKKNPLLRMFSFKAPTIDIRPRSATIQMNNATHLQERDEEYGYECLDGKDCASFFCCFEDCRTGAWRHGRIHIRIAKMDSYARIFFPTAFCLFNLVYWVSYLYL
Chain of Gamma-aminobutyric acid receptor subunit alpha-1/alpha-2/beta-2/gamma-2 (P47869 whole entry): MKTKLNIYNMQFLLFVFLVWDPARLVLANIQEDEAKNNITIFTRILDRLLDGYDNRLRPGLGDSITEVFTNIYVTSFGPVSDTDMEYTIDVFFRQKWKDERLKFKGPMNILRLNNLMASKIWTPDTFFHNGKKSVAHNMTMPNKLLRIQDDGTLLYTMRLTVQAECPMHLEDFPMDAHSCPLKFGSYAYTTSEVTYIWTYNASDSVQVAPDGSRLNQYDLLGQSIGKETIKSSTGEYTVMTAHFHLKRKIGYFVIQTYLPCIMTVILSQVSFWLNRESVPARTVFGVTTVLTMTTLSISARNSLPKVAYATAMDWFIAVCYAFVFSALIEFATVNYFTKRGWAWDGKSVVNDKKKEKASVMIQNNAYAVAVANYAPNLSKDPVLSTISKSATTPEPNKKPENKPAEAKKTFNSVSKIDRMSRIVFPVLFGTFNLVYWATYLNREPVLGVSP

Regarding `CN(C)CCCN1C(=O)c2cc([N+](=O)[O-])ccc2Oc2ccccc21`, the concentration at half-maximal activity (AC50) in assay [1] and in [2] was > 30 µM throughout.

As for `O=S(=O)(O)CCS` [2-MERCAPTOETHANESULFONIC ACID], the AC50 in assay [1] and in assay [2] was > 30 µM each time.

Consider `O=C(O)COc1nn(Cc2ccccc2)c2ccccc12` [BENDAZAC], for which the AC50 in assay [1] and in assay [2] was > 30 µM throughout.

As for `O=C(O)CCCc1ccc(N(CCCl)CCCl)cc1` [CHLORAMBUCIL], the figures for the AC50 in assay [1] and in assay [2] were 22.1 µM and > 30 µM, respectively.

Turning to `CN(CC(=O)O)C(=N)N` [CREATINE], the AC50 in assay [1] and in [2] was > 30 µM each time.

Turning to `Cn1c(=O)c2c(ncn2CC(O)CO)n(C)c1=O` (centres undefined) [DYPHYLLINE], the AC50 in assay [1] and in assay [2] was > 30 µM throughout.

`C#Cc1cccc(Nc2ncnc3cc(OCCOC)c(OCCOC)cc23)c1` [ERLOTINIB]: the AC50 (in assay [3]; in assay [4]; in assay [1]; on Cannabinoid receptor 1; in [5]; in assay [2]) was > 30 µM throughout. The AC50 (on Adenosine receptor A1; in [6]) was > 30 µM throughout.

With `CCC(=O)O[C@@H](O[P@](=O)(CCCCc1ccccc1)CC(=O)N1C[C@H](C2CCCCC2)C[C@H]1C(=O)O)C(C)C` [FOSINOPRIL], the AC50 (in [3]; in [4]; at Cannabinoid receptor 1; in [7]; in assay [6]) was > 30 µM in each case.

With `Cc1cc2c(OCC(O)CNC(C)C)cccc2[nH]1` (centres undefined) [MEPINDOLOL], the AC50 in assay [1] and in [2] was > 30 µM in each case.

As to `CCOc1cc(N)c(Cl)cc1C(=O)NCC1CN(Cc2ccc(F)cc2)CCO1` (centres undefined) [MOSAPRIDE], the AC50 in [1] and in [2] was > 30 µM each time.

Consider `CCOc1ccc2ccccc2c1C(=O)N[C@@H]1C(=O)N2[C@@H]1SC(C)(C)[C@@H]2C(=O)O` [NAFCILLIN], for which the AC50 in [1] and in assay [2] was > 30 µM each time.

`CN1CCC[C@H]1c1cccnc1` [NICOTINE]: the AC50 in assay [1] and in [2] was > 30 µM in each case.

With `CC(=O)Oc1ccccc1C(=O)Nc1ncc([N+](=O)[O-])s1` [NITAZOXANIDE], the AC50 (in general, the concentration at which the activity in the assay is half-maximal) in assay [3] was > 30 µM; in assay [1], > 30 µM; at Cannabinoid receptor 1, > 30 µM; in [5] it was 8.8 µM; in assay [2], > 10 µM; on Adenosine receptor A1 it was 7.1 µM. The AC50 was 10 µM in assay [8], 5 µM in [6] and > 30 µM at Glucocorticoid receptor.

Take `CCCCCCCCCCC[C@@H](C[C@@H]1OC(=O)[C@H]1CCCCCC)OC(=O)[C@H](CC(C)C)NC=O` [ORLISTAT]: the AC50 in assay [1] and in assay [2] was > 30 µM throughout.

In the case of `O=C1[C@H]2CCCC[C@H]2C(=O)N1CCCCN1CCN(c2nsc3ccccc23)CC1` [PEROSPIRONE], the AC50 in assay [1] and in [2] was > 30 µM in each case.

On to `CN(C)CCC(c1ccccc1)c1ccccn1` (centres undefined) [PHENIRAMINE], for which the AC50 in assay [1] and in assay [2] was > 30 µM throughout.

For the compound `CNC[C@H](O)c1cccc(O)c1` [PHENYLEPHRINE], the AC50 was > 30 µM in assay [3]; > 10 µM in assay [4]; > 30 µM at Cannabinoid receptor 1; > 30 µM in [7]; > 30 µM at Adenosine receptor A1; > 30 µM in [8]. Also, the AC50 in assay [6] is > 10 µM.

Consider `CC(C)(C)C(=O)NCCCC(=O)O` [PIVAGABINE], for which the AC50 in assay [1] and in [2] was > 30 µM throughout.

Regarding `CC(C)[N+](C)(CCOC(=O)C1c2ccccc2Oc2ccccc21)C(C)C` [PROPANTHELINE], the AC50 in [1] and in [2] was > 30 µM throughout.

Take `CN(C)C(=O)c1nc(CNC(=O)CN)n(-c2ccc(Cl)cc2C(=O)c2ccccc2Cl)n1` [RILMAZAFONE]: the AC50 in assay [1] and in [2] was > 30 µM each time.

On to `NC(=O)NS(=O)(=O)c1ccc(N)cc1` [SULFACARBAMIDE], for which the AC50 in assay [1] and in [2] was > 30 µM in each case.

`CCCCCCCCNC(C)C(O)c1ccc(SC(C)C)cc1` (centres undefined) [SULOCTIDIL]: the AC50 is > 10 µM in assay [1] and 11 µM in [2].

Take `CCCCNc1ccc(C(=O)OCCN(C)C)cc1` [TETRACAINE]: the AC50 was > 10 µM in assay [3]; > 10 µM in [4]; > 30 µM on Cannabinoid receptor 1; > 10 µM in [5]; > 30 µM in assay [2]; > 30 µM in assay [7]. Further, the half-maximal activity concentration (AC50) is > 30 µM at Adenosine receptor A1, > 30 µM in assay [8], > 10 µM in assay [6] and > 30 µM on Glucocorticoid receptor.

As to `Cn1c(=O)c2[nH]cnc2n(C)c1=O` [THEOPHYLLINE], the AC50 in [3] was > 10 µM; in assay [4], > 10 µM; at Cannabinoid receptor 1, > 30 µM; in assay [5], > 10 µM; in [2], > 30 µM; in [7] it was > 30 µM. The AC50 in assay [8] and in assay [6] was > 30 µM each time.

In the case of `CC1(C)O[C@@H]2[C@@H](CO[C@@]3(COS(N)(=O)=O)OC(C)(C)O[C@@H]23)O1` [TOPIRAMATE], the AC50 in assay [3] was > 10 µM; in assay [4], > 10 µM; at Cannabinoid receptor 1 it was > 30 µM; in [5], > 10 µM; in assay [2] it was > 30 µM; in assay [7], > 30 µM. Besides, the concentration at half-maximal activity (AC50) at Adenosine receptor A1 was > 30 µM; in [8], > 30 µM; in [6], > 10 µM.

As to `CCCCCCCCCCCCCCCC(=O)OC/C=C(C)/C=C/C=C(C)/C=C/C1=C(C)CCCC1(C)C` [VITAMIN A PALMITATE], the AC50 in assay [1] and in [2] was > 30 µM in each case.
